Among the data in patent US12492187B2, “Factor XI activation inhibitors” (Merck Sharp & Dohme LLC, priority 2020, dated 2025) are EC50 values, retold here.

Counter-ions that a name gives are not always drawn.

T1 sequence (P03951 19-625): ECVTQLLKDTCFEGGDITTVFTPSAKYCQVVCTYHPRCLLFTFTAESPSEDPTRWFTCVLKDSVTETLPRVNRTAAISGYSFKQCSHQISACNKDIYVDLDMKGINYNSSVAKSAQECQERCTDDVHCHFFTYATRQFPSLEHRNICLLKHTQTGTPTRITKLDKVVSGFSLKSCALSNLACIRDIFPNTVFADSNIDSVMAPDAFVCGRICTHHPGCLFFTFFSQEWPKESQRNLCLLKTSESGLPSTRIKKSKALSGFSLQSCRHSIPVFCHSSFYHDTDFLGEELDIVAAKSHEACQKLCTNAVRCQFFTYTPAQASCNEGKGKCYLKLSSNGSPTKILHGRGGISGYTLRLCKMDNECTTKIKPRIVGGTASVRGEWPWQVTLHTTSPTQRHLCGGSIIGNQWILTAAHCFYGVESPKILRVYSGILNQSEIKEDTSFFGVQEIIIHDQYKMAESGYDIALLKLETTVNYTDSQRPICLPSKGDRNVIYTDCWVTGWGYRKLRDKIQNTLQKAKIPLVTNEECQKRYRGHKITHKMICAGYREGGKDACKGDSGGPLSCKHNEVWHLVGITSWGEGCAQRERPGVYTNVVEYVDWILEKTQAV

The experiment has as its target T1, Human coagulation factor (F)XI (Homo sapiens, UniProt P03951).
T1 construct: purchased Haematologic Technologies Inc. (FXI); Enzyme Research Laboratories (FXIIa) HCXI-150 (FXI); HFXIIa (FXIIa)
Nature of the experiment: Inhibition of FXIIa mediated activation of FXI (activation of human Factor XI to XIa by human Factor α-XIIa). In kind it is biochemical. The following applies: human FXI pre-incubated with compound 30 min at 22° C., activation by human FXIIa 60 min, z-GPR-AFC substrate, fluorescence 405/510 nm, 4 parameter logistic fit; read-out: Inhibition of FXIIa meditated activation of FXI. Here is the method:
Inhibition of FXIIa Mediated Activation of FXI
Activation of Human Factor XI to XIa by Human Factor α-XIIa
Assay was performed in 50 mM HEPES, 150 mM NaCl, 5 mM CaCl2, 0.1% PEG-8000, pH 7.4 buffer in black, flat-bottom, polystyrene microplates (Corning, Cat #3573). Serial dilutions (10-point, 3.333-fold) of the test compounds delivered as 10 mM DMSO stocks were prepared in the Labcyte Echo-qualified PP 384 well microplates (Labcyte, Cat #P-05525). Human coagulation factor (F)XI (Haematologic Technologies Inc., Cat #HCXI-150, concentration 46 nM, 19.5 uL) was pre-incubated with 0.5 uL of the test compounds for 30 min at 22° C. The activation was initiated by addition of 10 uL of human coagulation factor (F)XIIa (Enzyme Research Laboratories, Cat #HFXIIa, concentration 30 nM) and reaction proceeded for 60 min at 22° C., after which it was quenched by addition of a selective inhibitor of FXIIa (Compound 54 in WO2018093695) concentration 600 uM in DMSO, 1 uL). 10 min after the quench, 29 uL of z-GPR-AFC substrate (Sigma, Cat #C0980-10MG, concentration 200 uM) was added into each well and the detection reaction proceeded for 60 min at 22° C. Fluorescence at 405/510 nm was measured in end-point mode using an Envision plate-reader (Perkin Elmer). IDBS Activity Base XE (ABase) analysis using 4 parameter logistic fit was performed to determine Minimum, Maximum, EC50, and Slope Factor for each compound.
In the case of `Cc1cnc(C(=O)N2CCC(C#N)(c3ccccc3)CC2)cc1C(=O)N1CCC2c3ccc(C#N)cc3OC2C1` (centres unmarked) [Example 22, 2-[2-(4-cyano-4-phenyl-piperidine-1-carbonyl)-5-methyl-pyridin-1-ium-4-carbonyl]-3,4,4a,9a-tetrahydro-1H-benzofuro[2,3-c]pyridine-7-carbonitrile; 2,2,2-trifluoroacetate], the EC50 stood at 0.0544 µM.

On to `Cc1cnc(C(=O)N2CCC(C#N)(c3ccccc3)CC2)cc1C(=O)N1CC[C@@H]2c3ccccc3O[C@@H]2C1` (racemic) [Example 2, 1-(4-((4aR,9aS)-1,2,3,4,4a,9a-hexahydrobenzofuro[2,3-c]pyridine-2-carbonyl)-5-methylpicolinoyl)-4-phenylpiperidine-4-carbonitrile and 1-(4-((4aS,9aR)-1,2,3,4,4a,9a-hexahydrobenzofuro[2,3-c]pyridine-2-carbonyl)-5-methylpicolinoyl)-4-phenylpiperidine-4-carbonitrile], for which the EC50 was 0.0394 µM.

Regarding `Cc1cnc(C(=O)N2CCC(C#N)(c3ccccc3)CC2)cc1C(=O)N1CCC2c3cc(F)c(F)cc3OC2C1` (centres unmarked) [Example 24, 1-[4-(6,7-difluoro-3,4,4a,9a-tetrahydro-1H-benzofuro[2,3-c]pyridine-2-carbonyl)-5-methyl-pyridin-1-ium-2-carbonyl]-4-phenyl-piperidine-4-carbonitrile; 2,2,2-trifluoroacetate], the EC50 stood at 0.0622 µM.

On to `N#CC1(c2ccccc2)CCN(C(=O)c2cc(C(=O)N3CC(c4ccc(F)cc4)C3)c(C(F)(F)F)cn2)CC1` [Example 17, 1-(4-(3-(4-fluorophenyl)azetidine-1-carbonyl)-5-(trifluoromethyl)picolinoyl)-4-phenylpiperidine-4-carbonitrile], for which the EC50 amounted to 0.411 µM.

For the compound `Cc1cnc(C(=O)N2CCC(C#N)(c3ccccc3)CC2)cc1C(=O)N1CCC2c3ccc(F)cc3OC2C1` (centres unmarked) [Example 20, 1-[4-(7-fluoro-3,4,4a,9a-tetrahydro-1H-benzofuro[2,3-c]pyridine-2-carbonyl)-5-methyl-pyridin-1-ium-2-carbonyl]-4-phenyl-piperidine-4-carbonitrile; 2,2,2-trifluoroacetate], the EC50 amounted to 0.0371 µM.

As to `Cc1nc(C(=O)N2CCC(C#N)(c3ccccc3)CC2)cc(C(=O)N2CCC(Cc3ccccc3)CC2)c1C` [Example 30, 1-[4-(4-benzylpiperidine-1-carbonyl)-5,6-dimethyl-pyridine-2-carbonyl]-4-phenyl-piperidine-4-carbonitrile], the EC50 was 0.0478 µM.

In the case of `Cc1cnc(C(=O)N2CCC(C#N)(c3ccccc3)CC2)cc1C(=O)N1CCN(C2CCCC2)C(=O)C1` [Example 11, 1-(4-(4-cyclopentyl-3-oxopiperazine-1-carbonyl)-5-methylpicolinoyl)-4-phenylpiperidine-4-carbonitrile], the EC50 was determined as 0.164 µM.

Take `Cc1cnc(C(=O)N2CCC(C#N)(c3ccccc3)CC2)cc1C(=O)N1CCC(N2CCC(F)(F)C2)CC1` [Example 1, 1-(4-(4-(3,3-difluoropyrrolidin-1-yl)piperidine-1-carbonyl)-5-methylpicolinoyl)-4-phenylpiperidine-4-carbonitrile, 2,2,2-trifluoroacetate salt]: the EC50 turned out to be 0.042 µM.

With `CC(C)(C)C1CCN(C(=O)c2cc(C(=O)N3CCC(C#N)(c4ccccc4)CC3)ncc2C#N)CC1` [Example 25, 4-(4-tert-butylpiperidine-1-carbonyl)-6-(4-cyano-4-phenyl-piperidine-1-carbonyl)pyridin-1-ium-3-carbonitrile; 2,2,2-trifluoroacetate], the EC50 stood at 0.0294 µM.

Take `Cc1cnc(C(=O)N2CCC(C#N)(c3ccccc3)CC2)cc1C(=O)N1CC2CC(C1)C2(F)c1ccccc1` (centres unmarked) [Example 12, 1-(4-(6-fluoro-6-phenyl-3-azabicyclo[3.1.1]heptane-3-carbonyl)-5-methylpicolinoyl)-4-phenylpiperidine-4-carbonitrile]: the EC50 was found to be 0.137 µM.

As for `Cc1cnc(C(=O)N2CCC(C#N)(c3ccccc3)CC2)cc1C(=O)N1CCC(c2ccccc2)CC1` [Example 5, 1-(5-methyl-4-(4-phenylpiperidine-1-carbonyl)picolinoyl)-4-phenylpiperidine-4-carbonitrile], the EC50 turned out to be 0.0304 µM.

`Cc1nc(C(=O)N2CCC(C#N)(c3ccccc3)CC2)cc(C(=O)N2CCC(C)(c3ccccc3)CC2)c1C` [Example 31, 1-[5,6-dimethyl-4-(4-methyl-4-phenyl-piperidine-1-carbonyl)pyridine-2-carbonyl]-4-phenyl-piperidine-4-carbonitrile]: the EC50 is 0.124 µM.

Take `Cc1cnc(C(=O)N2CCC(C#N)(c3ccccc3)CC2)cc1C(=O)N1CC2CC(C1)C2c1ccccc1` (centres unmarked) [Example 13, 1-(5-methyl-4-(6-phenyl-3-azabicyclo[3.1.1]heptane-3-carbonyl)picolinoyl)-4-phenylpiperidine-4-carbonitrile]: the EC50 came to 0.0667 µM.

Turning to `Cc1nc(C(=O)N2CCC(C#N)(c3ccccc3)CC2)cc(C(=O)N2CCC(c3ccccc3)CC2)c1C` [Example 32, 1-[5,6-dimethyl-4-(4-phenylpiperidine-1-carbonyl)pyridine-2-carbonyl]-4-phenyl-piperidine-4-carbonitrile], the EC50 worked out at 0.0366 µM.

For the compound `Cc1cnc(C(=O)N2CCC(C#N)(c3ccccc3)CC2)cc1C(=O)N1CCC2c3ccc(Cl)cc3OC2C1` (centres unmarked) [Example 23, 1-[4-(7-chloro-3,4,4a,9a-tetrahydro-1H-benzofuro[2,3-c]pyridine-2-carbonyl)-5-methyl-pyridin-1-ium-2-carbonyl]-4-phenyl-piperidine-4-carbonitrile; 2,2,2-trifluoroacetate], the EC50 stood at 0.0751 µM.

For `CC(C)(C)C1CCN(C(=O)c2cc(C(=O)N3CCC(C#N)(c4ccccc4)CC3)ncc2C2CC2)CC1` [Example 15, 1-(4-(4-(tert-butyl)piperidine-1-carbonyl)-5-cyclopropylpicolinoyl)-4-phenylpiperidine-4-carbonitrile, 2,2,2-trifluoroacetate salt], the EC50 worked out at 0.0425 µM.

In the case of `N#CC1(c2ccccc2)CCN(C(=O)c2cc(C(=O)N3CCC(N4CCC(F)(F)C4)CC3)c(C(F)(F)F)cn2)CC1` [Example 18, 1-[4-[4-(3,3-difluoropyrrolidin-1-ium-1-yl)piperidine-1-carbonyl]-5-(trifluoromethyl)pyridine-2-carbonyl]-4-phenyl-piperidine-4-carbonitrile; 2,2,2-trifluoroacetate], the EC50 came out at 0.04 µM.

For the compound `Cc1cnc(C(=O)N2CCC(C#N)(c3ccccc3)CC2)cc1C(=O)N1CCC(C)(N2CCC(F)(F)C2)CC1` [Example 3, 1-(4-(4-(3,3-difluoropyrrolidin-1-yl)-4-methylpiperidine-1-carbonyl)-5-methylpicolinoyl)-4-phenylpiperidine-4-carbonitrile], the EC50 came out at 0.0618 µM.

With `N#CC1(c2ccccc2)CCN(C(=O)c2cc(C(=O)N3CCC4c5ccccc5OC4C3)c(C(F)(F)F)cn2)CC1` (centres unmarked) [Example 16, 1-(4-(1,2,3,4,4a,9a-hexahydrobenzofuro[2,3-c]pyridine-2-carbonyl)-5-(trifluoromethyl)picolinoyl)-4-phenylpiperidine-4-carbonitrile], the EC50 came to 0.106 µM.

On to `Cc1nc(C(=O)N2CCC(C#N)(c3ccccc3)CC2)cc(C(=O)N2CCN(C3(c4ccccc4)CC3)CC2)c1C` [Example 29, 1-[5,6-dimethyl-4-[4-(1-phenylcyclopropyl)piperazine-1-carbonyl]pyridine-2-carbonyl]-4-phenyl-piperidine-4-carbonitrile], for which the EC50 was found to be 0.0411 µM.
